Data published in publication PMC11096148 (EJNMMI Radiopharmacy and Chemistry, 2024).
Values joined by “and” are separate entries in the source; they are usually repeats but may differ in a detail not shown here. Equal values may be shown once.

Key:
[1] = molecular target: T1, asialoglycoprotein receptor (ASGR) (Mus musculus, UniProt P24721+P34927); test: Competitive binding against [^125I]I-asialoorosomucoid on freshly isolated mouse hepatocytes; settings: [^125I]I-asialoorosomucoid 5 nM, 1 hour on ice
T1 construct: endogenous in cells; host or cells: primary hepatocytes freshly isolated from C57BL/6 mice (collagenase perfusion)
T1 sequence (P34927 1-284): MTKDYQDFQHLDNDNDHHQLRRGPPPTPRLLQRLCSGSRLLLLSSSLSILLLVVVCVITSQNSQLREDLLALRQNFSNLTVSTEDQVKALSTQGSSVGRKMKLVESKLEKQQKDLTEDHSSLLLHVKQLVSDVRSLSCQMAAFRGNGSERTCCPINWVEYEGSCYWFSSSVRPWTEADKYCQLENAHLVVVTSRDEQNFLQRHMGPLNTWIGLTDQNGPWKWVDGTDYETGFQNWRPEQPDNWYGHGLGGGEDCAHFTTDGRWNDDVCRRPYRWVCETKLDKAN
T1 sequence (P24721 1-301): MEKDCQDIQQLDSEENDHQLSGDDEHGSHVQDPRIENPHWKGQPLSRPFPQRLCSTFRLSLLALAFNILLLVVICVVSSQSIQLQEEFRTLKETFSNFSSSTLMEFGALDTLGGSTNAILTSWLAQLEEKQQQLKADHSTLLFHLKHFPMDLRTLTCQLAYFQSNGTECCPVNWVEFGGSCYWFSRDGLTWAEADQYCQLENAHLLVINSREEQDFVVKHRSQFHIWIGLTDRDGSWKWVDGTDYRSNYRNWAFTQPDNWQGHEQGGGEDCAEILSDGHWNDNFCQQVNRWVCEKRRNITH
Description: Inhibitory constant (IC50) values were determined in triplicates using freshly isolated mouse hepatocytes (Seglen [1976]). […] In brief, cells were incubated in presence of [^125I]I-asialoorosomucoid (5 nM) with various ligand concentrations ranging from 10^− 5-10^− 11 M for 1 hour on ice. Cells were washed and cell bound activity was released by addition of 200 µL 1 M NaOH for 10 min. The activity content in the lysates was quantified in a γ-counter (2480 Wizard^2 3”, PerkinElmer, Waltham, Massachussetts, USA) and the values were plotted in excel. Fitting of the sigmoidal binding curve and the calculation of the IC50 value was done with excel’s solver plugin.
Binding to the ASGR was quantified in an assay with freshly isolated mouse hepatocytes using the ^natGa-complex of NODAGA-TriGalactan. Hepatocytes were seeded in a 24-well plate and competitive binding against [^125I]I-asialorosomucoid (ASOR) was studied. For comparison, the affinity of GSA for the receptor was also determined.
Isolation of murine hepatocytes followed the collagenase perfusion method published by Seglen [4]. Therefore, C57BL/6 mice were euthanized by cervical dislocation and subsequently the peritoneum was opened. […] Hepatocytes were resuspended in 20 – 30 mL of William’s E + Glutamaxx + 10 % FCS + 1 % Penicillin/Streptomycin (Gibco, Thermofisher Scientific) and counted, typically yielding 30 – 40 × 10^6 cells/animal. […]

mouse hepatic organoids = test: Organoid uptake assay and fluorescence imaging; assay type: cell-based; settings: 1 h at 37 °C
Description: For blocking, the experiment was conducted in presence of 10 mM GalNAc. At the end of the incubation time, cells were put on ice for 1 min and spun down (300 rcf, 5 min, 4 °C). The supernatant was carefully removed and organoids were washed twice with 200 µL of ice-cold PBS. Internalized activity was released by treating the organoids with 200 µL of 1 M NaOH for 10 min. Lysates were transferred into scintillation vials and the activity content was measured in a γ-counter. Organoid uptake was determined as the percentage of total radioactivity added.
For microscopic studies organoids were incubated with 333 nM BP-Fluor-647-TriGalactan for 1 h at 37 °C. Cells were pelleted, washed once with PBS and fixated by addition of 200 µL of fixation buffer (BD Cytofix/Cytoperm™, Fisher Scientific, Hampton, USA). After 1 h at room temperature, cells were washed again with PBS and incubated in 100 µL of perm/wash-buffer (Biozym, Hessisch Oldendorf, Germany) for another 30 min. For counter staining organoids were incubated over night at 4 °C with 30 µL of a mixture of 2 µM Hoechst 33,342 (Thermo Scientific), 165 nM Phalloidin CruzFluor™ 555 (Santa Cruz, Dallas, Texas, USA) and Anti-ASGR1 AF488-coupled antibody (2 µg/mL, Bio-Techne, Dublin, Ireland). The next day, organoids were centrifuged, washed three times with PBS and transferred to a CellCarrier-96 Ultra Microplate (PerkinElmer). The Operetta CLS system (revvity, Hamburg, Germany) was used to image the samples. Analysis was performed using the Harmony software 4.9.
Mouse hepatic organoids (Stemcell Technologies, Vancouver, Canada) were cultivated in HepatiCult® organoid growth medium supplemented with 1 % Penicillin/Streptomycin + l-Glutamine (Thermofisher Scientific, Waltham, Massachussetts, USA) embedded in a Geltrex^TM (Thermofisher Scientific) LDEV-free reduced growth factor basement membrane matrix. Medium was replaced every 3-4 days and organoids were passaged every 7-10 days. For passaging, matrix domes were mechanically disrupted and the cell suspension was transferred into a 15 mL falcon tube. […]

ASGR = system: ASGR; parameters: method as in Stokmaier et al. [2009]; settings: higher than galactose; ref Stokmaier et al. [2009]; cited from earlier work
[2] = Biodistribution studies in healthy BALB/c mice; assay type: in vivo
Description: For biodistribution studies 6 week old female BALB/c mice (n = 3, Charles Rivers Laboratories, Sulzfeld, Germany) were injected with 0.1 nmol (100 µL, approx. 1 MBq) of ^68Ga-labelled compound via the lateral tail vein and sacrificed by cervical dislocation 10, 30, or 60 min post injection (p.i.). The mice were dissected, blood and organs were weighed and the activity of the samples measured in a γ-counter. For blocking experiments, mice were co-injected with 27.7 µmol of D-galactose.

[3] = Stability in human blood serum; assay type: in vitro ADME; settings: for Serum stability: human blood serum
Description: (§1) A detailed synthetic procedure for preparation of NODAGA-TriGalactan including analytical data as well as a complete list of all reagents can be found in the supplementary information. Protocols for determination of logD, protein binding and stability studies have been described elsewhere (Hörmann et al. [2020]).
(§2) Binding to the ASGR was quantified in an assay with freshly isolated mouse hepatocytes using the ^natGa-complex of NODAGA-TriGalactan. Hepatocytes were seeded in a 24-well plate and competitive binding against [^125I]I-asialorosomucoid (ASOR) was studied.

Stability in PBS = assay type: physicochemical
Description: as §1, §2

plasma protein = test: Protein binding; assay type: in vitro ADME
Description: as §1, §2

[4] = Small animal dynamic PET/MR imaging, time activity curves; assay type: in vivo; settings: C57BL/6J mice
Description: All animal experiments were performed according to the German animal welfare act and approved by the local authorities (R5/19). Male C57BL/6J mice were purchased from Janvier Lab (Saint-Berthevin Cedex, France) at 6 weeks. Mice were kept under 1.5% isoflurane in oxygen during the measurements (n = 3). Approximately 1 MBq of the radiotracer was injected intravenously per mouse and 1 h dynamic PET was performed with an Inveon microPET system (Inveon D-PET, Siemens, Knoxville, TN, USA). Mice were then transferred to a 7 Tesla BioSpec 70/30 USR (Bruker Biospin MRI GmbH, Ettlingen, Germany) and a 15 min MR anatomical scan using T2-weighted 3-dimensional turbo spin-echo sequence was acquired. An Inveon Acquisition Workplace was used to reconstruct the acquired images using ordered subset expectation maximization 3D (OSEM 3D) and framing the dynamics. The reconstructed image analysis was performed by using an Inveon Research Workplace. After co-registering acquired MR images with PET images, regions of interest (ROIs) were drawn on liver, heart, muscle, and kidney and time activity curves (TACs) were quantified.

[5] = 30 min p.i., blocking with 27.7 µmol D-galactose

Compound: O=C([O-])CN1CCN(CC(=O)[O-])CCN([C@H](CCC(=O)NCCCC(=O)NC(COCc2cn(CCOCCOCCO[C@@H]3O[C@H](CO)[C@H](O)[C@H](O)[C@H]3O)nn2)(COCc2cn(CCOCCOCCO[C@@H]3O[C@H](CO)[C@H](O)[C@H](O)[C@H]3O)nn2)COCc2cn(CCOCCOCCO[C@@H]3O[C@H](CO)[C@H](O)[C@H](O)[C@H]3O)nn2)C(=O)[O-])CC1.[Ga+3] [[^natGa]Ga-NODAGA-TriGalactan]
- IC50 [1]: 73.2 ± 67.5 nM

Compound: CC1(CCCCCC(=O)NCCCC(=O)NC(COCc2cn(CCOCCOCCO[C@@H]3O[C@H](CO)[C@H](O)[C@H](O)[C@H]3O)nn2)(COCc2cn(CCOCCOCCO[C@@H]3O[C@H](CO)[C@H](O)[C@H](O)[C@H]3O)nn2)COCc2cn(CCOCCOCCO[C@@H]3O[C@H](CO)[C@H](O)[C@H](O)[C@H]3O)nn2)C(/C=C/C=C/C=C2/N(CCCS(=O)(=O)O)c3ccc(S(=O)(=O)O)cc3C2(C)C)=[N+](CCCS(=O)(=O)[O-])c2ccc(S(=O)(=O)O)cc21 (stereo partly shown) [BP-Fluor-647-TriGalactan]
- Fluorescence imaging of mouse hepatic organoids (mouse hepatic organoids; 333 nM, co-staining with anti-ASGR antibody): internalization of the trimer into the organoids

Compound: CC(=O)N[C@H]1C(O)O[C@H](CO)[C@H](O)[C@@H]1O (mixture of isomers) [GalNAc, N-acetylgalactosamine]
- affinity for the ASGR relative to galactose (ASGR): 10 times

Compound: O=C([O-])CN1CCN(CC(=O)[O-])CCN([C@H](CCC(=O)NCCCC(=O)NC(COCc2cn(CCOCCOCCO[C@@H]3O[C@H](CO)[C@H](O)[C@H](O)[C@H]3O)nn2)(COCc2cn(CCOCCOCCO[C@@H]3O[C@H](CO)[C@H](O)[C@H](O)[C@H]3O)nn2)COCc2cn(CCOCCOCCO[C@@H]3O[C@H](CO)[C@H](O)[C@H](O)[C@H]3O)nn2)C(=O)[O-])CC1.[68Ga+3] [[^68Ga]Ga-NODAGA-TriGalactan]
- Cellular uptake on mouse hepatic organoids (mouse hepatic organoids; 0.3 nM tracer): decent degree of internalization
- Cellular uptake with blocking on mouse hepatic organoids (mouse hepatic organoids; in presence of 10 mM GalNAc, p < 0.05): receptor specific interaction with the ASGR
- Biodistribution Blood ([2]; 10 min p.i.): 3.3 ± 0.2 % ID/g
- Biodistribution Femur ([2]; 10 min p.i.): 0.87 ± 0.52 % ID/g
- Biodistribution Intestine ([2]; 10 min p.i.): 1.13 ± 0.07 % ID/g
- Biodistribution Kidneys ([2]; 10 min p.i.): 8.2 ± 0.5 % ID/g and 8.15 ± 0.54 % ID/g
- Biodistribution Liver ([2]; 10 min p.i.): 33.4 ± 0.9 % ID/g
- Biodistribution Lung ([2]; 10 min p.i.): 2.14 ± 0.13 % ID/g
- Biodistribution Muscle ([2]; 10 min p.i.): 0.77 ± 0.02 % ID/g
- Biodistribution Pancreas ([2]; 10 min p.i.): 0.87 ± 0.12 % ID/g
- Biodistribution Spleen ([2]; 10 min p.i.): 0.78 ± 0.05 % ID/g
- Biodistribution Blood ([2]; 30 min p.i.): 0.89 ± 0.09 % ID/g
- Biodistribution Femur ([2]; 30 min p.i.): 0.22 ± 0.02 % ID/g
- Biodistribution Heart ([2]; 30 min p.i.): 0.40 ± 0.03 % ID/g
- Biodistribution Intestine ([2]; 30 min p.i.): 1.95 ± 0.17 % ID/g
- Biodistribution Kidneys ([2]; 30 min p.i.): 2.83 ± 0.18 % ID/g
- Biodistribution Liver ([2]; 30 min p.i.): 32.2 ± 3.7 % ID/g
- Biodistribution Lung ([2]; 30 min p.i.): 0.74 ± 0.03 % ID/g
- Biodistribution Muscle ([2]; 30 min p.i.): 0.23 ± 0.03 % ID/g
- Biodistribution Pancreas ([2]; 30 min p.i.): 0.31 ± 0.05 % ID/g
- Biodistribution Spleen ([2]; 30 min p.i.): 0.27 ± 0.02 % ID/g
- Biodistribution Stomach ([2]; 30 min p.i.): 1.05 ± 0.08 % ID/g
- Biodistribution Blood [2, 5]: 1.19 ± 0.33 % ID/g
- Biodistribution Femur [2, 5]: 0.37 ± 0.16 % ID/g
- Biodistribution Heart [2, 5]: 0.44 ± 0.03 % ID/g
- Biodistribution Intestine [2, 5]: 0.77 ± 0.19 % ID/g
- Biodistribution Kidneys [2, 5]: 4.19 ± 0.29 % ID/g
- Biodistribution Liver [2, 5]: 14.6 ± 0.15 % ID/g
- Biodistribution Lung [2, 5]: 0.97 ± 0.04 % ID/g
- Biodistribution Muscle [2, 5]: 0.43 ± 0.20 % ID/g
- Biodistribution Pancreas [2, 5]: 0.45 ± 0.01 % ID/g
- Biodistribution Spleen [2, 5]: 0.32 ± 0.03 % ID/g
- Biodistribution Stomach [2, 5]: 0.68 ± 0.11 % ID/g
- Biodistribution Blood ([2]; 60 min p.i.): 0.3 ± 0.04 % ID/g and 0.34 ± 0.04 % ID/g
- Biodistribution Femur ([2]; 60 min p.i.): 0.26 ± 0.19 % ID/g
- Biodistribution Heart ([2]; 60 min p.i.): 0.17 ± 0.00 % ID/g
- Biodistribution Intestine ([2]; 60 min p.i.): 3.0 ± 0.4 % ID/g and 2.99 ± 0.43 % ID/g
- Biodistribution Kidneys ([2]; 60 min p.i.): 1.51 ± 0.10 % ID/g
- Biodistribution Liver ([2]; 60 min p.i.): 27.7 ± 3.1 % ID/g
- Biodistribution Lung ([2]; 60 min p.i.): 0.38 ± 0.10 % ID/g
- Biodistribution Muscle ([2]; 60 min p.i.): 0.17 ± 0.02 % ID/g
- Biodistribution Pancreas ([2]; 60 min p.i.): 0.19 ± 0.09 % ID/g
- Biodistribution Spleen ([2]; 60 min p.i.): 0.16 ± 0.02 % ID/g
- Biodistribution Stomach ([2]; 60 min p.i.): 0.92 ± 0.04 % ID/g
- Serum stability ([3]; 2 min): 99.8 ± 0%
- Serum stability ([3]; 30 min): 97.6 ± 2.3%
- Serum stability ([3]; 60 min): 98.5 ± 1.2%
- Serum stability ([3]; 120 min): 92.9 ± 4.6%
- stability in human blood serum (intact tracer) ([3]; over the time course of 2 h): > 93%
- PBS stability (Stability in PBS; 2 min): 99.8%
- PBS stability (Stability in PBS; 30 min): 99.8%
- PBS stability (Stability in PBS; 60 min): 99.8%
- PBS stability (Stability in PBS; 120 min): 99.8%
- stability in PBS (intact tracer) (Stability in PBS; over the time course of 2 h): > 99%
- Protein binding (plasma protein; 2 min of incubation): 7.6 ± 3.9%
- Protein binding (plasma protein; 30 min of incubation): 5.5 ± 0.5%
- Protein binding (plasma protein; 60 min of incubation): 9.2 ± 0.2%
- Protein binding (plasma protein; 120 min of incubation): 13.6 ± 3.2%
- Time of kidney activity peak, PET TAC [4]: ~1.5 min
- Background muscle uptake, PET TAC ([4]; 1 h dynamic PET): less than 3 % ID/mL
- Activity in the blood (measured in the heart), PET TAC ([4]; within the first three minutes): below 5 % ID/mL
